In one assay the test system is Ramos lymphoma cells. Briefly: Subcutaneous Ramos lymphoma xenograft in NOD/SCID mice. The conditions noted are these: PG545 IP 20 mg/kg once weekly from one day after inoculation. In kind it is in vivo, human. As for the experimental part: (§1) Lymphoma cells were also inoculated subcutaneously at the right flank of 6-weeks-old NOD/SCID mice (human cell lines) or C57BL/6 mice (E1-4 mouse lymphoma cells) (n=7). Mice were treated with heparanase inhibitors (PG545; SST0001) or neutralizing antibodies and xenografts size was determined by externally measuring the tumors in 2 dimensions using a caliper. At the end of the experiment, mice were sacrificed; tumor xenografts were removed, weighed and fixed for histological and immunohistochemical analyses (Weissmann et al, 2016, Proc Natl Acad Sci USA 113:704-709). […]
(§2) A. Specimens of human follicular (FIG. 1A, left panel) and diffuse (FIG. 1A, right panel) B-cell lymphomas were subjected for immunostaining applying anti-heparanase antibody. […] Lysates of Raji cells and extracts of tumor xenografts produced by Raji cells were applied onto dishes coated with sulfate-labelled ECM and heparanase enzymatic activity was determined as described (Vlodaysky I, et al. 1999, Nature Med 5(7):793-802). […] Extracts of control (Con) and PG545-treated tumor xenografts produced by Raji cells were applied onto dishes coated with sulfate labelled ECM and heparanase activity was determined as above (lower panel).

The subject of the next assay is Raji lymphoma cells. Briefly: Subcutaneous Raji lymphoma xenograft in NOD/SCID mice. In kind it is in vivo, human. As for the experimental part:
as §1, §2

The next assay relates to Daudi lymphoma cells. Nature of the assay: Subcutaneous Daudi lymphoma xenograft in NOD/SCID mice. Conditions: PG545 IP 20 mg/kg once weekly from one day after inoculation. The assay is classed as in vivo, human. As for the experimental part: as §1, §2
The test system of another assay is OCI-LY-19 lymphoma cells. Briefly: Subcutaneous OCI-LY-19 lymphoma xenograft in NOD/SCID mice. The assay is classed as in vivo, human. The conditions noted are these: OCI-LY-19, PG545 IP 20 mg/kg once weekly from one day after inoculation. As for the experimental part: as §1, §2
In the next assay the test system is SU-DHL-6 lymphoma cells. Nature of the assay: Subcutaneous SU-DHL-6 lymphoma xenograft in mice. The assay is classed as in vivo, human. Conditions: SU-DHL-6, PG545 IP 20 mg/kg once weekly from one day after inoculation.
Assay [1] concerns human lymphoma cell lines. Briefly: Subcutaneous human lymphoma xenografts, dose response and treatment of palpable tumors (cell lines only 'indicated'). The assay is classed as in vivo. As for the experimental part:
as §1, §2

Assay [2] has as its system E1-4 mouse lymphoma cells. Briefly: Subcutaneous E1-4 mouse lymphoma tumors. The assay is classed as in vivo. The conditions noted are these: E1-4 cells lacking heparanase activity. As for the experimental part: (§3) Lymphoma cells were also inoculated subcutaneously at the right flank of 6-weeks-old NOD/SCID mice (human cell lines) or C57BL/6 mice (E1-4 mouse lymphoma cells) (n=7). Mice were treated with heparanase inhibitors (PG545; SST0001) or neutralizing antibodies and xenografts size was determined by externally measuring the tumors in 2 dimensions using a caliper. At the end of the experiment, mice were sacrificed; tumor xenografts were removed, weighed and fixed for histological and immunohistochemical analyses (Weissmann et al, 2016, Proc Natl Acad Sci USA 113:704-709). ESb mouse T-lymphoma cells (5×10^5) were similarly inoculated subcutaneously into SCID mice and spontaneous metastasis to the liver (Vlodaysky et al., 1983, Cancer Res 43:2704-2711) was examined after 3 weeks of treatment with PG545 or the neutralizing mAb, as described above. All animal experiments were approved by the Animal Care Committee of the Technion, Haifa, Israel.

Assay [3] has as its system ESb mouse T-lymphoma cells. Nature of the assay: ESb T-lymphoma spontaneous liver metastasis and survival. The assay is classed as in vivo. The conditions noted are these: PG545 20 mg/kg once a week. As for the experimental part: as §3
FIG. 3A. HEK 293 cells were incubated with latent 65 kDa (upper panel) or GS3 constitutively active heparanase (1 μg/ml; third panel) and the indicated mAbs (10 μg/ml). The cell medium was aspirated at the time designated and cell lysates were subjected to immunoblotting applying anti-heparanase antibody (upper and third panels). […] Heparanase-transfected 293 cells were grown with control mouse IgM or mAb 9E8 for two days. Cells were then fixed with methanol and subjected to immunofluorescent staining applying anti heparanase antibody (second panel) or lysed and subjected to immunoblotting applying anti-heparanase antibody (fourth panel). Purified recombinant active heparanase (200 ng) was pre-incubated with control mouse IgM ( ? ), mAb 8A5 ( ? ), mAb 9E8 ( ? ), all at 2 μg/ml, for 2 h in serum-free RPMI medium on ice. The mixture was then applied onto ^35S-labeled ECM-coated dishes and heparanase activity was determined as described above (lower panel). FIG. 3B, C. […] Quantification of the extent of CD45 staining is shown graphically in the lower panel. […]

The test system of the next assay is Raji-luciferase cells. Briefly: Raji-luciferase lymphoma, tail vein inoculation, bone marrow growth by IVIS imaging. The assay is classed as in vivo, human. Conditions: PG545 20 mg/kg once a week. On the procedure:
Tumorigenicity. Luciferase-labelled CAG myeloma (5×10^6) or Raji lymphoma (1×10^6) cells were injected into the tail vein of NOD/SCID mice (n=5). Mice were treated with PG545 (20 mg/kg, once weekly), mAb 9E8 (600 μg/mouse) every other day starting one day following cell inoculation and tumor growth was examined by IVIS imaging. At termination, mice were sacrificed, the backbones were excised, fixed in formalin and following de-calcification with 10% EDTA solution were embedded in paraffin and subjected to histological and immunohistochemical analyses essentially as described (Weissmann et al, 2016, Proc Natl Acad Sci USA 113:704-709). Dose of 25-30 mg/kg (i.e., 500-600 μg mAb/mouse) is typical in cancer restraining experiments (Van Looy T, et al. 2015, Transl Oncol 8(2):112-118).
IVIS imaging. Bioluminescent imaging of the luciferase-expressing tumors was performed with a highly sensitive, cooled charge coupled device (CCD) camera mounted in a light-tight specimen box (IVIS; Xenogen Corp., Waltham, Mass.). Briefly, mice were injected intraperitoneally with D-luciferin substrate at 150 mg/kg, anesthetized and placed onto a stage inside the light-tight camera box, with continuous exposure to isoflurane (EZAnesthesia, Palmer, Pa.). Light emitted from the bioluminescent cells was detected by the IVIS camera system with images quantified for tumor burden using a log-scale color range set at 5×10^4 to 1×10^7 and measurement of total photon counts per second (PPS) using Living Image software (Xenogen) (Weissmann et al, 2016, Proc Natl Acad Sci USA 113:704-709).
FIG. 4A. Raji-luciferase cells (1×10^6) were injected into the tail vein of NOD/SCID mice (n=5). Mice were treated with PG545 (20 mg/kg once a week) starting one day after cell inoculation and IVIS imaging was applied to quantify tumor load. […] NOD/SCID mice (n=5) were inoculated (iv) with Raji-luciferase cells and mice were treated with mAb 9E8 (600 μg/mouse every other day) (FIG. 4C) and tumor growth was evaluated by IVIS imaging (left panels). Quantification of luciferase signals is shown graphically in the right lower panel.

Another assay deals with T1, heparanase (Homo sapiens, UniProt Q9Y251).
T1 sequence (Q9Y251 36-543): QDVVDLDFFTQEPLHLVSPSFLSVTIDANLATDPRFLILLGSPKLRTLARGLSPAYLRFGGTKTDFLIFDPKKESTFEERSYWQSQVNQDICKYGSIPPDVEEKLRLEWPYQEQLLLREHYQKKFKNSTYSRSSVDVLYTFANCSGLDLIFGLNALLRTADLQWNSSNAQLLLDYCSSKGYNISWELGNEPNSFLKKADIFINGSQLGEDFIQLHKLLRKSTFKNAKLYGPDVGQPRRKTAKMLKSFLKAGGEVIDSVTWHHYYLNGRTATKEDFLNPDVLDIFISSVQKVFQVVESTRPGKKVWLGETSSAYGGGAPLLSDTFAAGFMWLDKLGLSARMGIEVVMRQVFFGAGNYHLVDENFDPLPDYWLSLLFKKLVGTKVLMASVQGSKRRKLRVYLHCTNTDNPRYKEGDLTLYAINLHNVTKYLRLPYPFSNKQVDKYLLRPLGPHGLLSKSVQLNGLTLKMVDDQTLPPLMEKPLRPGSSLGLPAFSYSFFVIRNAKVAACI
The conditions noted are these: prior art; cited from earlier work.

For assay [4] the following is noted: prior art; cited from earlier work.

Description for SU-DHL-6 lymphoma cells: The indicated lymphoma cells (5×10^6) were implanted subcutaneously in NOD/SCID mice (n=7) and mice were administered with PG545 (IP, 20 mg/kg, once weekly, starting one day after cell inoculation), or control vehicle (PBS; Con). At termination, tumors were removed, weighted and embedded in paraffin for histological and immunohistochemical analyses. Mice were similarly inoculated with the indicated lymphoma cells and were treated with the indicated concentration of PG545 (mg/kg once a week; FIG. 1C) or were treated with PG545 (20 mg/kg once a week) once the tumors became palpable (FIG. 1D). Shown are average (±SE) tumor weight (gr.).

As to `CC(C)CCC[C@@H](C)[C@H]1CC[C@H]2[C@@H]3CC[C@H]4C[C@@H](O[C@@H]5O[C@H](COS(=O)(=O)O)[C@@H](O[C@H]6O[C@H](COS(=O)(=O)O)[C@@H](O[C@H]7O[C@H](COS(=O)(=O)O)[C@@H](O[C@H]8O[C@H](COS(=O)(=O)O)[C@@H](OS(=O)(=O)O)[C@H](OS(=O)(=O)O)[C@H]8OS(=O)(=O)O)[C@H](OS(=O)(=O)O)[C@H]7OS(=O)(=O)O)[C@H](OS(=O)(=O)O)[C@H]6OS(=O)(=O)O)[C@H](OS(=O)(=O)O)[C@H]5OS(=O)(=O)O)CC[C@]4(C)[C@H]3CC[C@]12C` [PG545], the “growth of tumor xenografts (tumor weight)” value is “markedly attenuated” in the assay with Ramos lymphoma cells; “markedly attenuated” with Raji lymphoma cells (Raji, PG545 IP 20 mg/kg once weekly from one day after inoculation); “markedly attenuated” in the assay with Daudi lymphoma cells; “markedly attenuated” in the assay on OCI-LY-19 lymphoma cells; “markedly attenuated” in the assay on SU-DHL-6 lymphoma cells. Also, the “heparanase activity in tumor xenograft extracts” value in the assay with Raji lymphoma cells (extracts of Raji xenografts on sulfate labelled ECM) is recorded as “inhibits heparanase activity”. For the same compound, the “inhibition of tumor xenograft growth when treated once lesions became palpable” value in assay [1] (PG545 20 mg/kg once a week (FIG. 1D)) is on record as “significant inhibition”. Also, the “dose dependence of xenograft growth attenuation” value in assay [1] (indicated concentrations mg/kg once a week (FIG. 1C)) is “dose-dependent manner”. Also, the “growth of tumor xenografts” value in [2] was “not inhibited”. Also, the survival of mice result in assay [3] (ESb s.c. in NOD/SCID mice) is “prolonged”. For the same compound, the liver metastasis result in [3] (ESb) was “reduced liver metastasis”. In the assay with Raji-luciferase cells, the “blood vessel density (CD31) in bone marrow” value is reported as “decreased blood vessel density”. For the same compound, the “expansion of Raji-luciferase cells in the bone marrow” value in the assay on Raji-luciferase cells (IVIS) is reported as “markedly reduced”.
As to KKFKNSTYSRSSVD [KKDC], the “inhibition of heparanase activity” value in the assay with heparanase is “inhibits heparanase enzymatic activity”. Besides, in assay [4], the “interaction with heparin and HS” value is “high affinity”.

Values taken from patent US11161912B2, “Heparanase-neutralizing monoclonal antibodies” (Technion Research & Development Foundation Limited, priority 2015, dated 2021).
